Source: publication PMC11672299, “Conjugation of Polycationic Peptides Extends the Efficacy Spectrum of β‐Lactam Antibiotics” (Advanced Science, 2024)
Like-named read-outs stand apart in the source and are kept apart here.

What was measured:
[1] = system: E. coli Tü20‐025 (clinical isolate); assay: microbe, parasite or virus in culture; type: cell-based
Method in brief: (§1)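 Broth microdilution in cation-adjusted MHB II with twofold serial compound dilutions; final inoculum 5 × 10^5 CFU mL^−1, incubated 20 h at 37 ± 1 °C. MIC = lowest concentration preventing visible growth. β-Lactamase inhibitors were added at fixed levels (clavulanic acid 2 mg L^−1, avibactam 4 mg L^−1).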

[2] = system: E. casseliflavus ATCC 700327; assay: microbe, parasite or virus in culture; type: cell-based
Method in brief: as §1

[3] = system: K. pneumoniae Tü20‐036 (clinical isolate); assay: microbe, parasite or virus in culture; type: cell-based
Method in brief: as §1

[4] = system: S. aureus LAC* lux USA300 (MRSA); assay: MIC by broth microdilution; type: cell-based; details: Staphylococcus aureus
Procedure: (§2) The minimum inhibitory concentration (MIC) of the β‐lactam–peptide conjugates was determined by broth microdilution as previously described.^[ [17] ^] Briefly, in cation‐adjusted MHB II medium, a twofold serial dilution of the compounds was prepared in 96‐well round‐bottom polystyrene or polypropylene microtiter plates with each well containing 50 µL. The plates were inoculated with 50 µL bacterial suspension and the final inoculum, in a total volume of 100 µL, contained 5 × 10^5 CFU mL^−1. The microplates were incubated for 20 h at 37 ± 1 °C. The lowest concentration preventing visible bacterial growth was considered the MIC value. For susceptibility testing of combinations of β‐lactamase‐inhibitors with either a β‐lactam antibiotic or a β‐lactam–peptide conjugate, fixed concentrations of the inhibitors according to the EUCAST (European Committee on Antimicrobial Susceptibility Testing) guidelines (clavulanic acid = 2 mg L^−1, avibactam = 4 mg L^−1) were used.

[5] = system: HEPG2 cells; assay: Cytotoxicity assay (PrestoBlue viability); type: cell-based, human; details: HEPG2, up to 512 µg mL^−1, 24 h
Procedure: (§3) To exclude any cytotoxic effects on mammalian cells prior to in vivo studies, the viability of the cell lines HEP‐G2 (hepatocellular carcinoma) and HEK‐293 (human […] embryonal kidney) after incubation with different concentrations of the β‐lactam–peptide conjugates were determined. For the viability assay, 10^4 cells per well were seeded in a 96‐well half area microplate and incubated overnight in a humidified 5% CO2 atmosphere at 37 °C. The next day, the conjugates were twofold serially diluted in PBS and added to the cells to obtain final concentrations ranging from 1–512 µg mL^−1. Cells were then incubated with the antibiotics in a humidified 5% CO2 atmosphere at 37 °C for a further 24 h. PrestoBlue HS Cell Viability Reagent was then added to the wells and the plates again were incubated in a humidified 5% CO2 atmosphere at 37 °C for 1 h. Afterwards, the absorption at 570 nm and 600 nm (reference) using an Infinite M200 PRO microplate reader (Tecan, Männedorf, Switzerland) was measured. Cell viability was calculated using the untreated control cells as a reference for 100% alive cells.

[6] = system: HEK‐293 cells; assay: Cytotoxicity assay (PrestoBlue viability); type: cell-based, human; details: HEK‐293, up to 512 µg mL^−1, 24 h
Procedure: as §3

[7] = system: VRE E. faecium UW 18 830 (vanA); assay: Systemic infection VRE mouse model; type: in vivo, female Balb/c mice; details: VRE E. faecium UW18830 infected Balb/c mice, 30 mg kg^−1 day^−1 i.v., 48 h p.i., compared to CTZ or PBS
From the text: The animal infection studies were approved by the local government of Lower Franconia, Germany (approval number 55.2.2‐2532.2‐1283) and performed in strict accordance with the guidelines for animal care and experimentation of the German Animal Protection Law and the DIRECTIVE 2010/63/EU of the EU. The animals were housed in individually ventilated cages under standardized lighting conditions and had ad libitum access to food and water. To evaluate the in vivo activity during systemic infection, female Balb/c mice were infected with 5×10^7 CFU of VRE E. faecium UW 18 830 (vanA) by tail vein injection. Beginning at 1 h p.i., then repeatedly every 12 h, mice received intravenously either CTZ (30 mg kg body weight^−1 day^−1), CTZ‐R6 (30 mg kg body weight^−1 day^−1) or sterile PBS. The livers were recovered 48 h p.i. (12 h after the last treatment) and frozen at – 80 °C until further processing. For the determination of the bacterial burden, the livers were thawed, homogenized in PBS and plated in serial dilutions on brain heart infusion agar plates. CFU were counted after overnight incubation at 37 °C.

[8] = system: CTZ‐resistant C. freundii (n = 3); type: cell-based; details: 20 h
Procedure: as §2

[9] = system: CTZ‐resistant A. baumannii (n = 4); type: cell-based
Procedure: as §2

[10] = system: A. bohemicus DSM 100419; assay: MIC by broth microdilution; type: cell-based; details: median (n = 3)
Procedure: as §2

[11] = system: E. casseliflavus (ATCC 700 327); assay: Spontaneous resistance rate; type: cell-based; details: E. casseliflavus ATCC 700 327, agar with 16 µg mL^−1 CTZ‐R6
Procedure: The rate of spontaneous resistance of E. casseliflavus (ATCC 700 327) against CTZ‐R6 was investigated as previously described.^[ [33] ^] A bacterial suspension of ATCC 700 327 was adjusted to an OD600 of 1 with 0.9% NaCl, corresponding to a theoretical concentration of 2 × 10^8 CFU mL^−1. 250 µL of the suspension were plated on 10 cation‐adjusted MHB II agar plates containing 16 µg mL^−1 CTZ‐R6 and incubated at 37 °C for 18 h. As concentration control, the bacterial inoculum (OD600 = 1) was diluted and plated on antibiotic‐free cation adjusted MHB II agar plates and incubated at 37 °C for 18 h. The number of colonies on both types of plates was counted and the spontaneous resistance rate was calculated accordingly: (2) SpontaneousResistanceRate=#coloniesonantibioticplates/#coloniesoncontrolplatexdilutionfactorx2.5

Structure (SMILES)	MIC ([1]; Escherichia coli, E. coli Tü20‐025, median (n = 3), read-out: MIC) [µg/mL]	MIC ([2]; Enterococcus casseliflavus, ATCC700327, E. casseliflavus ATCC 700327, median (n = 3), read-out: MIC) [µg/mL]	MIC ([3]; Klebsiella pneumoniae) [µg/mL]	MIC [4] [µg/mL]	cytotoxicity (cell viability) [5]	cytotoxicity (cell viability) [6]	bacterial burden in the liver (CFU) [7]	MIC ([1]; Tü20‐025 (clinical isolate, 20 h)) [µg/mL]	MIC ([2]; ATCC 700327, 20 h) [µg/mL]	MIC ([3]; Tü20‐036 (clinical isolate, 20 h)) [µg/mL]	MIC range [8] [µg/mL]	MIC range ([9]; CTZ‐resistant (n = 4, 20 h)) [µg/mL]	increase in antimicrobial activity versus CTZ ([9]; CTZ‐resistant A. baumannii) [fold]	antimicrobial activity (rank among CTZ–peptide conjugates) [10]	spontaneous resistance rate [11]
CC(C)(O/N=C(\C(=O)N[C@@H]1C(=O)N2C(C(=O)[O-])=C(C[n+]3ccccc3)CS[C@H]12)c1csc(N)n1)C(=O)O [CTZ, ceftazidime, reference compound]	2	> 2050	0.125	16	no significant cytotoxicity	no significant cytotoxicity	–	–	–	–	–	–	–	–	–
CC(C)(O/N=C(\C(=O)N[C@@H]1C(=O)N2C(C(=O)[O-])=C(C[n+]3ccccc3)CS[C@H]12)c1csc(N)n1)C(=O)NCCCCCCN1C(=O)CC(SC[C@H](NC(=O)[C@H](CCCNC(=N)N)NC(=O)[C@H](CCCNC(=N)N)NC(=O)[C@H](CCCNC(=N)N)NC(=O)[C@H](CCCNC(=N)N)NC(=O)[C@H](CCCNC(=N)N)NC(=O)[C@@H](N)CCCNC(=N)N)C(N)=O)C1=O (stereo partly drawn) [CTZ-R6]	–	–	–	–	–	–	reduced the bacterial burden in the liver	0.5	0.25	0.0625	0.5 to 64	4 to 16	~16	most potent conjugates	< 2.7 × 10^−9
